Experimental data from ChEMBL document CHEMBL1201862, “PubChem BioAssay data set” (2004).
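Each compound was tested at five concentrations against cells in 96-well plates for 48 hours. GI50: concentration for 50% inhibition of growth.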 Calls of active or inactive are those of the source. No stated cut-off is given here; in the data, active = GI50 up to about 1.1 µM and inactive = higher.

What was measured:
Experiment in all cases: NCI anticancer screen, dose series, 48 h
[1] = system: NCI-H460
[2] = system: NCI-H23
[3] = system: HT-29
[4] = system: SK-MEL-2
[5] = system: Malme-3M
[6] = system: Hs-578T
[7] = system: A549
[8] = system: KM12
[9] = system: MDA-MB-435
[10] = system: TK-10
[11] = system: OVCAR-3
[12] = system: MOLT-4
[13] = system: MDA-MB-231
[14] = system: 786-0
[15] = system: SF-268
[16] = system: IGROV-1
[17] = system: NCI-H522
[18] = system: T47D
[19] = system: HCC 2998

Measured: GI50

Nc1ncc2c(n1)-c1ccccc1OC2N1CCOCC1 (stereo not drawn)
inactive: [1] > 100 µM | [2] > 100 µM | [3] > 100 µM | [4] > 100 µM | [5] > 100 µM | [6] > 100 µM | [7] > 100 µM | [8] > 100 µM | [9] > 100 µM | [10] > 100 µM | [11] > 100 µM | [12] > 100 µM | [13] > 100 µM | [14] > 100 µM | [15] > 100 µM | [16] > 100 µM | [17] 45.2 µM

CC12CCC(/C(=N/c3cc(C(F)(F)F)cc(C(F)(F)F)c3)C1=O)C2(C)C (stereo not drawn)
inactive: [1] 33.4 µM | [2] 25.7 µM | [3] 68.5 µM | [18] 19.8 µM | [19] 26.3 µM | [4] 18.8 µM | [5] 33.4 µM | [7] 31.9 µM | [8] 26.4 µM | [9] 38.3 µM | [10] 37.2 µM | [11] 33.7 µM | [12] 17.4 µM | [13] 36.9 µM | [14] 35.5 µM | [15] 33.3 µM | [16] 25.2 µM

c1ccc2cc3c(NC4=NCCO4)cccc3cc2c1
inactive: [1] 29 µM | [2] 32.9 µM | [3] 29.9 µM | [4] 46.1 µM | [5] 36.1 µM | [6] 41.8 µM | [7] > 100 µM | [8] 44.7 µM | [9] 37.1 µM | [10] 86.9 µM | [11] 32.2 µM | [12] 31.1 µM | [13] 25.2 µM | [14] 57 µM | [15] 34.2 µM | [16] 60.8 µM | [17] > 100 µM

Clc1nc(Cl)c(Cl)c(-c2ccccc2)n1
inactive: [1] 9.46 µM | [2] 15.8 µM | [3] 1.68 µM | [19] 22.2 µM | [4] 15.4 µM | [5] 5.61 µM | [6] 2.73 µM | [7] 13.8 µM | [8] 5.02 µM | [9] 14.6 µM | [10] 18.8 µM | [11] 2.05 µM | [12] 1.58 µM | [14] 2.21 µM | [15] 23.9 µM | [16] 15.4 µM | [17] 1.67 µM

O=C(OCC1OC(c2nn[nH]n2)C(OC(=O)c2ccccc2)C1OC(=O)c1ccccc1)c1ccccc1 (stereo not drawn)
inactive: [1] 71 µM | [2] > 100 µM | [3] 61.9 µM | [19] > 100 µM | [4] > 100 µM | [5] > 100 µM | [7] > 100 µM | [8] 67.6 µM | [9] > 100 µM | [10] > 100 µM | [11] > 100 µM | [12] > 100 µM | [14] > 100 µM | [15] 76.7 µM

CC1OC(=O)N(CCCC=C2SCCCS2)C1=O (stereo not drawn)
inactive: [1] > 100 µM | [2] > 100 µM | [3] > 100 µM | [4] > 100 µM | [5] > 100 µM | [7] > 100 µM | [8] > 100 µM | [10] > 100 µM | [11] > 100 µM | [12] > 100 µM | [14] > 100 µM | [15] > 100 µM | [16] > 100 µM | [17] > 100 µM

Cc1ccc2nc(-c3ccc(N)c(I)c3)sc2c1
inactive: [1] 18.2 µM | [3] 18.9 µM | [19] 6.75 µM | [4] 17.9 µM | [5] 36.1 µM | [6] 31 µM | [7] 15.2 µM | [8] 5.87 µM | [9] 19.2 µM | [11] 21.8 µM | [12] 10.4 µM | [13] 14.3 µM | [14] 15.8 µM | [15] 23.2 µM | [17] 18 µM
active: [10] 0.39 µM

CC(C)=Cc1cc(C(=O)NCCNC(=O)c2cc(C=C(C)C)nc(NC#N)n2)nc(NC#N)n1
inactive: [1] > 100 µM | [2] > 100 µM | [3] > 100 µM | [19] > 100 µM | [5] > 100 µM | [7] > 100 µM | [8] > 100 µM | [10] > 100 µM | [11] > 100 µM | [12] > 100 µM | [14] > 100 µM | [15] > 100 µM | [16] > 100 µM | [17] > 100 µM

O=C1CCN(CCC(F)(F)C(F)(F)C(F)(F)C(F)(F)F)C(=S)N1
inactive: [1] > 100 µM | [2] > 100 µM | [3] > 100 µM | [4] > 100 µM | [5] > 100 µM | [7] > 100 µM | [8] > 100 µM | [10] > 100 µM | [11] > 100 µM | [12] > 100 µM | [14] > 100 µM | [15] > 100 µM | [16] > 100 µM | [17] > 100 µM

N#C/C(=C\c1cc(Cl)cc(Cl)c1)c1ccccn1
inactive: [1] 7.83 µM | [2] 6.35 µM | [3] 18.2 µM | [19] 31 µM | [4] 92 µM | [5] > 100 µM | [7] 18.9 µM | [8] 9.59 µM | [10] 58.5 µM | [11] 26.1 µM | [12] 5.14 µM | [14] 21.5 µM | [15] 27.7 µM | [16] 12.4 µM | [17] 9.44 µM

O=C1/C(=C/c2ccccc2)CCc2ccccc21
inactive: [1] 26.1 µM | [2] 19.6 µM | [3] 16.6 µM | [19] 16.3 µM | [5] 16.6 µM | [6] 19.8 µM | [7] 22.7 µM | [8] 18 µM | [9] 14.8 µM | [10] 15.2 µM | [11] 16.6 µM | [12] 12.2 µM | [13] 26.2 µM | [14] 17.5 µM | [15] 19.7 µM | [16] 21.4 µM

CCOP(=O)(/C=C\n1ccc(=O)[nH]c1=O)OCC
inactive: [1] > 10 µM | [2] > 100 µM | [3] > 100 µM | [18] > 100 µM | [4] > 100 µM | [7] > 100 µM | [8] > 100 µM | [9] > 100 µM | [10] > 100 µM | [11] > 100 µM | [12] > 100 µM | [13] > 100 µM | [14] > 100 µM | [15] > 100 µM | [16] > 100 µM | [17] > 100 µM

CC(C)C1=C(Cc2ccccc2)C(=O)O/C1=C\c1ccc(O)c(Cl)c1
inactive: [1] 17.4 µM | [2] 13.1 µM | [3] 18.8 µM | [19] 14.6 µM | [5] 15.8 µM | [6] 13.6 µM | [7] 15.1 µM | [8] 18.1 µM | [9] 17 µM | [10] 17.7 µM | [11] 14.8 µM | [12] 10.9 µM | [13] 16.2 µM | [14] 16.5 µM | [15] 16.6 µM | [16] 16.8 µM
